Measured values as given in PubChem BioAssay (NCI).
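Five compound concentrations were applied to cells in 96-well plates for 48 hours; endpoints were derived by simple linear interpolation of the resulting dose-response curve. GI50 = concentration required for 50% inhibition of growth. TGI marks complete inhibition of growth.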

How the values were obtained:
Assay in all cases: inhibition of tumour cell growth, NCI panel, 48 h
786-0 renal = tested on: 786-0 renal
A549 NSCLC = tested on: A549 NSCLC
ACHN renal = tested on: ACHN renal
BT-549 breast = tested on: BT-549 breast
CAKI-1 renal = tested on: CAKI-1 renal
CCRF-CEM leukemia = tested on: CCRF-CEM leukemia
COLO 205 colon = tested on: COLO 205 colon
DU-145 prostate = tested on: DU-145 prostate
EKVX NSCLC = tested on: EKVX NSCLC
HCC-2998 colon = tested on: HCC-2998 colon
HCT-116 colon = tested on: HCT-116 colon
HCT-15 colon = tested on: HCT-15 colon
HOP-62 NSCLC = tested on: HOP-62 NSCLC
HT29 colon = tested on: HT29 colon
IGROV1 ovarian = tested on: IGROV1 ovarian
K-562 leukemia = tested on: K-562 leukemia
M14 melanoma = tested on: M14 melanoma
MALME-3M melanoma = tested on: MALME-3M melanoma
MDA-MB-231 breast = tested on: MDA-MB-231 breast
MDA-MB-435 = tested on: MDA-MB-435
MOLT-4 leukemia = tested on: MOLT-4 leukemia
NCI-H460 lung = tested on: NCI-H460 lung
NCI-H522 lung = tested on: NCI-H522 lung
NCI/ADR-RES ovarian = tested on: NCI/ADR-RES ovarian
OVCAR-3 ovarian = tested on: OVCAR-3 ovarian
OVCAR-5 ovarian = tested on: OVCAR-5 ovarian
PC-3 prostate = tested on: PC-3 prostate
RPMI-8226 leukemia = tested on: RPMI-8226 leukemia
RXF 393 renal = tested on: RXF 393 renal
SF-268 CNS = tested on: SF-268 CNS
SF-295 CNS = tested on: SF-295 CNS
SF-539 CNS = tested on: SF-539 CNS
SK-MEL-2 melanoma = tested on: SK-MEL-2 melanoma
SK-OV-3 ovarian = tested on: SK-OV-3 ovarian
SN12C renal = tested on: SN12C renal
SNB-19 CNS = tested on: SNB-19 CNS
SNB-75 CNS = tested on: SNB-75 CNS
SR leukemia = tested on: SR leukemia
SW-620 colon = tested on: SW-620 colon
T-47D breast = tested on: T-47D breast
TK-10 renal = tested on: TK-10 renal
U251 CNS = tested on: U251 CNS
UACC-257 melanoma = tested on: UACC-257 melanoma
UACC-62 melanoma = tested on: UACC-62 melanoma
UO-31 renal = tested on: UO-31 renal
KM12 colon = tested on: KM12 colon
LOX IMVI melanoma = tested on: LOX IMVI melanoma
NCI-H226 lung = tested on: NCI-H226 lung
NCI-H23 lung = tested on: NCI-H23 lung
OVCAR-4 ovarian = tested on: OVCAR-4 ovarian
OVCAR-8 ovarian = tested on: OVCAR-8 ovarian
SK-MEL-28 melanoma = tested on: SK-MEL-28 melanoma
SK-MEL-5 melanoma = tested on: SK-MEL-5 melanoma

With `Cc1nn2c(/C=N/N=C(N)N)c(-c3ccc(Cl)c([N+](=O)[O-])c3)nc2s1` the GI50 (786-0 renal) was 0.249 µM, the TGI (786-0 renal) was 0.442 µM and the GI50 (A549 NSCLC) was 4.96 µM. The TGI (A549 NSCLC) was 17.5 µM, the GI50 (ACHN renal) was 0.966 µM and the TGI (ACHN renal) was 2.58 µM. The GI50 (BT-549 breast) was 21.6 µM, the TGI (BT-549 breast) was 48.3 µM and the GI50 (CAKI-1 renal) was 1.47 µM. For the same molecule, the TGI (CAKI-1 renal) was 2.85 µM, the GI50 (CCRF-CEM leukemia) was 0.368 µM and the TGI (CCRF-CEM leukemia) was 0.751 µM. For the same molecule, the GI50 (COLO 205 colon) was 0.457 µM, the TGI (COLO 205 colon) was 61.7 µM and the GI50 (DU-145 prostate) was 2.32 µM. It also gave a TGI (DU-145 prostate) of 4.98 µM, a GI50 (EKVX NSCLC) of 25.3 µM and a TGI (EKVX NSCLC) of 69.6 µM. For the same molecule, the GI50 (HCC-2998 colon) was 1.42 µM, the TGI (HCC-2998 colon) was 2.91 µM and the GI50 (HCT-116 colon) was 0.192 µM. It also gave a TGI (HCT-116 colon) of 0.374 µM, a GI50 (HCT-15 colon) of 1.43 µM and a TGI (HCT-15 colon) of 3.72 µM. It also gave a GI50 (HOP-62 NSCLC) of 0.262 µM, a TGI (HOP-62 NSCLC) of 0.529 µM and a GI50 (HT29 colon) of 0.236 µM. It also gave a GI50 (IGROV1 ovarian) of 6.2 µM, a TGI (IGROV1 ovarian) of 22.1 µM and a GI50 (K-562 leukemia) of 2.98 µM. For the same molecule, the TGI (K-562 leukemia) was 9.63 µM, the GI50 (M14 melanoma) was 1.72 µM and the TGI (M14 melanoma) was 3.3 µM. It also gave a GI50 (MALME-3M melanoma) of 2.44 µM, a TGI (MALME-3M melanoma) of 4.14 µM and a GI50 (MDA-MB-231 breast) of 2.03 µM. For the same molecule, the TGI (MDA-MB-231 breast) was 3.66 µM, the GI50 (MDA-MB-435) was 0.204 µM and the TGI (MDA-MB-435) was 0.363 µM. For the same molecule, the GI50 (MOLT-4 leukemia) was 2.88 µM, the TGI (MOLT-4 leukemia) was 5.61 µM and the GI50 (NCI-H460 lung) was 1.18 µM. For the same molecule, the GI50 (NCI-H522 lung) was 7.04 µM, the TGI (NCI-H522 lung) was 46.7 µM and the GI50 (NCI/ADR-RES ovarian) was 3.61 µM. The TGI (NCI/ADR-RES ovarian) was 15 µM, the GI50 (OVCAR-3 ovarian) was 0.488 µM and the TGI (OVCAR-3 ovarian) was 1.52 µM. It also gave a GI50 (OVCAR-5 ovarian) of 1.42 µM, a TGI (OVCAR-5 ovarian) of 3.15 µM and a GI50 (PC-3 prostate) of 1.14 µM. The TGI (PC-3 prostate) was 2.83 µM, the GI50 (RPMI-8226 leukemia) was 0.791 µM and the TGI (RPMI-8226 leukemia) was 1.76 µM. It also gave a GI50 (RXF 393 renal) of 3.4 µM, a GI50 (SF-268 CNS) of 1.22 µM and a GI50 (SF-295 CNS) of 0.615 µM. It also gave a TGI (SF-295 CNS) of 1.94 µM, a GI50 (SF-539 CNS) of 2.07 µM and a TGI (SF-539 CNS) of 3.63 µM. The GI50 (SK-MEL-2 melanoma) was 2.53 µM, the TGI (SK-MEL-2 melanoma) was 6.46 µM and the GI50 (SK-OV-3 ovarian) was 2.85 µM. It also gave a TGI (SK-OV-3 ovarian) of 6.75 µM, a GI50 (SN12C renal) of 0.763 µM and a TGI (SN12C renal) of 1.58 µM. The GI50 (SNB-19 CNS) was 0.543 µM, the TGI (SNB-19 CNS) was > 100 µM and the GI50 (SNB-75 CNS) was 1.36 µM. The TGI (SNB-75 CNS) was 2.94 µM, the GI50 (SR leukemia) was 2.53 µM and the TGI (SR leukemia) was 4.9 µM. The GI50 (SW-620 colon) was 0.444 µM, the TGI (SW-620 colon) was 1.72 µM and the GI50 (T-47D breast) was 0.481 µM. For the same molecule, the GI50 (TK-10 renal) was 2.06 µM, the TGI (TK-10 renal) was 3.56 µM and the GI50 (U251 CNS) was 0.285 µM. For the same molecule, the TGI (U251 CNS) was 0.597 µM, the GI50 (UACC-257 melanoma) was 6.14 µM and the TGI (UACC-257 melanoma) was 11.7 µM. It also gave a GI50 (UACC-62 melanoma) of 2.06 µM, a TGI (UACC-62 melanoma) of 3.58 µM and a GI50 (UO-31 renal) of 20.9 µM. It also gave a TGI (UO-31 renal) of 41.1 µM.
In the case of `CC12CCC([C@H](Nc3cc(C(F)(F)F)cc(C(F)(F)F)c3)C1=O)C2(C)C` (stereo not given in full), the TGI (786-0 renal) is reported as > 100 µM, the TGI (A549 NSCLC) is reported as > 100 µM and the TGI (ACHN renal) is reported as > 100 µM. For the same molecule, the TGI (BT-549 breast) was > 100 µM, the TGI (CAKI-1 renal) was > 100 µM and the TGI (COLO 205 colon) was > 100 µM. For the same molecule, the TGI (DU-145 prostate) was > 100 µM, the TGI (EKVX NSCLC) was > 100 µM and the TGI (HCC-2998 colon) was > 100 µM. For the same molecule, the TGI (HCT-116 colon) was > 100 µM, the TGI (HCT-15 colon) was > 100 µM and the TGI (HOP-62 NSCLC) was > 100 µM. For the same molecule, the TGI (HT29 colon) was > 100 µM, the TGI (IGROV1 ovarian) was > 100 µM and the TGI (K-562 leukemia) was > 100 µM. The TGI (KM12 colon) was > 100 µM, the TGI (LOX IMVI melanoma) was > 100 µM and the TGI (M14 melanoma) was > 100 µM. The TGI (MALME-3M melanoma) was > 100 µM, the TGI (MDA-MB-231 breast) was > 100 µM and the TGI (MDA-MB-435) was > 100 µM. The TGI (MOLT-4 leukemia) was > 100 µM, the TGI (NCI-H226 lung) was > 100 µM and the TGI (NCI-H23 lung) was > 100 µM. The TGI (NCI/ADR-RES ovarian) was > 100 µM, the TGI (OVCAR-3 ovarian) was > 100 µM and the TGI (OVCAR-4 ovarian) was > 100 µM. The TGI (OVCAR-5 ovarian) was > 100 µM, the TGI (OVCAR-8 ovarian) was > 100 µM and the TGI (PC-3 prostate) was > 100 µM. For the same molecule, the TGI (RXF 393 renal) was 28 µM, the TGI (SF-268 CNS) was > 100 µM and the TGI (SF-295 CNS) was > 100 µM. The TGI (SF-539 CNS) was > 100 µM, the TGI (SK-MEL-2 melanoma) was > 100 µM and the TGI (SK-MEL-28 melanoma) was > 100 µM. For the same molecule, the TGI (SK-MEL-5 melanoma) was > 100 µM, the TGI (SK-OV-3 ovarian) was > 100 µM and the TGI (SNB-19 CNS) was > 100 µM. For the same molecule, the TGI (SR leukemia) was > 100 µM, the TGI (SW-620 colon) was > 100 µM and the TGI (T-47D breast) was > 100 µM. The TGI (TK-10 renal) was > 100 µM, the TGI (UACC-257 melanoma) was > 100 µM and the TGI (UO-31 renal) was > 100 µM.
